Test results taken from US7582652B2, “Kinase inhibitors” (Eli Lilly and Company, priority 2004, dated 2009).

System: MAPKAP-K2 phosphorylation in B16F10 melanoma tumors
Assay: B16F10 melanoma target (MAPKAP-K2 phosphorylation)
Assay type: in vivo, C57B16 mice
Settings: p.o., B16F10 tumors in mice, MAPKAP-K2 phosphorylation by immuno-blot
Method: B16F10 Melanoma Target (MAPKAP-K2 Phosphorylation)
The B16F10 melanoma cell line is obtained from the American Type Culture Collection, Rockville, Md. The cells are cultured in RPMI-1640 medium supplemented with 10% fetal calf serum. The cells grown in vitro are harvested during their exponential growth phase by gentle trypsinization, washed twice in medium, and resuspended in serum-free RPMI-1640 medium. The number of viable cells is determined using a hemocytometer and adjusted to 1×10^7/mL. Tumor cells are injected subcutaneously in normal C57B16 mice. Inoculum volume per mouse is 0.2 mL (2,000,000 cells). When the tumors reach 300-500 mg, the mice are used for target inhibition studies at either a fixed time (2.5 hours) after p.o. compound treatment or pharmacodynamic studies where the tumors are collected at multiple time-points (e.g., 3, 6, 9, 12, 15, and 18 h) after p.o. compound treatment.
Protein Extraction and Immuno-Blot Analysis
Tumors collected as described above are immediately snap-frozen in liquid nitrogen and stored at −80° C. […] The supernatant is transferred to fresh prechilled microfuge tubes and protein concentrations are measured using Bio-Rad protein assay reagents using bovine serum albumin as protein standard.
Protein extracts are equalized with the extraction buffer. […] Protein bands of interest are quantified from films using Kodak Image Station 1000.

SMILES: CC(C)(C)Cn1c(N)nc2ccc(-c3nc(C(C)(C)C)[nH]c3-c3ccc(F)cc3)nc21.CS(=O)(=O)O.CS(=O)(=O)O [EXAMPLE 104, Crystalline 5-[2-tert-Butyl-5-(4-fluoro-phenyl)-1H-imidazol-4-yl]-3-(2,2-dimethyl-propyl)-3H-imidazo[4,5-b]pyridin-2-ylamine dimethanesulfonate]
- TMED50: 3.59 mg/kg
